pEC50, pKi: −log10 of the molar value.
How the values were obtained:
[1] = biological target: Inositol 1,4,5-trisphosphate receptor (Homo sapiens, UniProt Q14571+Q14573+Q14643); assay: Compound was evaluated for its effective dose to inhibit the calcium release as a measure of affinity for Inositol 1,4,5-trisphosphate receptor; assay type: functional
[2] = biological target: T1, Inositol polyphosphate-5-phosphatase A (Homo sapiens, UniProt Q14642); assay: Compound was evaluated for binding affinity towards Inositol-1,4,5-trisphosphate 5-phosphatase
T1 sequence (Q14642 whole entry): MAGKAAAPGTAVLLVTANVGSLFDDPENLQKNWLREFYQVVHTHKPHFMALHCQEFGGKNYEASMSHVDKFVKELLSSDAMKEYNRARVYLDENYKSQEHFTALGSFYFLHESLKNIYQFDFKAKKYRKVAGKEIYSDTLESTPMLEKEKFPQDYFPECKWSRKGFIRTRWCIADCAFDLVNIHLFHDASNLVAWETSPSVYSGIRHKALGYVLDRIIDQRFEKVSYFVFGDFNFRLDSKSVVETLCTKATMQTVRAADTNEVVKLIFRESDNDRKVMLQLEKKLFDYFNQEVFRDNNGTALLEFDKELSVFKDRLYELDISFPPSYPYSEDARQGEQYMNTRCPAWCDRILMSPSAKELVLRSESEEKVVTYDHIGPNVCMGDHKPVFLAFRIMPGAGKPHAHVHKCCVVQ

[3] = Inhibition of inositol-trisphosphate phosphorylation; design: species or system Rattus norvegicus
[4] = biological target: Inositol 1,4,5-trisphosphate-gated calcium channel ITPR3 (Homo sapiens, UniProt Q14573); assay: Compound was evaluated for its effective dose to inhibit the calcium release as a measure of affinity for Ins(1,4,5)P3 receptor; assay type: functional
Inositol 1,4,5-trisphosphate-gated calcium channel ITPR3, sequence (Q14573 whole entry): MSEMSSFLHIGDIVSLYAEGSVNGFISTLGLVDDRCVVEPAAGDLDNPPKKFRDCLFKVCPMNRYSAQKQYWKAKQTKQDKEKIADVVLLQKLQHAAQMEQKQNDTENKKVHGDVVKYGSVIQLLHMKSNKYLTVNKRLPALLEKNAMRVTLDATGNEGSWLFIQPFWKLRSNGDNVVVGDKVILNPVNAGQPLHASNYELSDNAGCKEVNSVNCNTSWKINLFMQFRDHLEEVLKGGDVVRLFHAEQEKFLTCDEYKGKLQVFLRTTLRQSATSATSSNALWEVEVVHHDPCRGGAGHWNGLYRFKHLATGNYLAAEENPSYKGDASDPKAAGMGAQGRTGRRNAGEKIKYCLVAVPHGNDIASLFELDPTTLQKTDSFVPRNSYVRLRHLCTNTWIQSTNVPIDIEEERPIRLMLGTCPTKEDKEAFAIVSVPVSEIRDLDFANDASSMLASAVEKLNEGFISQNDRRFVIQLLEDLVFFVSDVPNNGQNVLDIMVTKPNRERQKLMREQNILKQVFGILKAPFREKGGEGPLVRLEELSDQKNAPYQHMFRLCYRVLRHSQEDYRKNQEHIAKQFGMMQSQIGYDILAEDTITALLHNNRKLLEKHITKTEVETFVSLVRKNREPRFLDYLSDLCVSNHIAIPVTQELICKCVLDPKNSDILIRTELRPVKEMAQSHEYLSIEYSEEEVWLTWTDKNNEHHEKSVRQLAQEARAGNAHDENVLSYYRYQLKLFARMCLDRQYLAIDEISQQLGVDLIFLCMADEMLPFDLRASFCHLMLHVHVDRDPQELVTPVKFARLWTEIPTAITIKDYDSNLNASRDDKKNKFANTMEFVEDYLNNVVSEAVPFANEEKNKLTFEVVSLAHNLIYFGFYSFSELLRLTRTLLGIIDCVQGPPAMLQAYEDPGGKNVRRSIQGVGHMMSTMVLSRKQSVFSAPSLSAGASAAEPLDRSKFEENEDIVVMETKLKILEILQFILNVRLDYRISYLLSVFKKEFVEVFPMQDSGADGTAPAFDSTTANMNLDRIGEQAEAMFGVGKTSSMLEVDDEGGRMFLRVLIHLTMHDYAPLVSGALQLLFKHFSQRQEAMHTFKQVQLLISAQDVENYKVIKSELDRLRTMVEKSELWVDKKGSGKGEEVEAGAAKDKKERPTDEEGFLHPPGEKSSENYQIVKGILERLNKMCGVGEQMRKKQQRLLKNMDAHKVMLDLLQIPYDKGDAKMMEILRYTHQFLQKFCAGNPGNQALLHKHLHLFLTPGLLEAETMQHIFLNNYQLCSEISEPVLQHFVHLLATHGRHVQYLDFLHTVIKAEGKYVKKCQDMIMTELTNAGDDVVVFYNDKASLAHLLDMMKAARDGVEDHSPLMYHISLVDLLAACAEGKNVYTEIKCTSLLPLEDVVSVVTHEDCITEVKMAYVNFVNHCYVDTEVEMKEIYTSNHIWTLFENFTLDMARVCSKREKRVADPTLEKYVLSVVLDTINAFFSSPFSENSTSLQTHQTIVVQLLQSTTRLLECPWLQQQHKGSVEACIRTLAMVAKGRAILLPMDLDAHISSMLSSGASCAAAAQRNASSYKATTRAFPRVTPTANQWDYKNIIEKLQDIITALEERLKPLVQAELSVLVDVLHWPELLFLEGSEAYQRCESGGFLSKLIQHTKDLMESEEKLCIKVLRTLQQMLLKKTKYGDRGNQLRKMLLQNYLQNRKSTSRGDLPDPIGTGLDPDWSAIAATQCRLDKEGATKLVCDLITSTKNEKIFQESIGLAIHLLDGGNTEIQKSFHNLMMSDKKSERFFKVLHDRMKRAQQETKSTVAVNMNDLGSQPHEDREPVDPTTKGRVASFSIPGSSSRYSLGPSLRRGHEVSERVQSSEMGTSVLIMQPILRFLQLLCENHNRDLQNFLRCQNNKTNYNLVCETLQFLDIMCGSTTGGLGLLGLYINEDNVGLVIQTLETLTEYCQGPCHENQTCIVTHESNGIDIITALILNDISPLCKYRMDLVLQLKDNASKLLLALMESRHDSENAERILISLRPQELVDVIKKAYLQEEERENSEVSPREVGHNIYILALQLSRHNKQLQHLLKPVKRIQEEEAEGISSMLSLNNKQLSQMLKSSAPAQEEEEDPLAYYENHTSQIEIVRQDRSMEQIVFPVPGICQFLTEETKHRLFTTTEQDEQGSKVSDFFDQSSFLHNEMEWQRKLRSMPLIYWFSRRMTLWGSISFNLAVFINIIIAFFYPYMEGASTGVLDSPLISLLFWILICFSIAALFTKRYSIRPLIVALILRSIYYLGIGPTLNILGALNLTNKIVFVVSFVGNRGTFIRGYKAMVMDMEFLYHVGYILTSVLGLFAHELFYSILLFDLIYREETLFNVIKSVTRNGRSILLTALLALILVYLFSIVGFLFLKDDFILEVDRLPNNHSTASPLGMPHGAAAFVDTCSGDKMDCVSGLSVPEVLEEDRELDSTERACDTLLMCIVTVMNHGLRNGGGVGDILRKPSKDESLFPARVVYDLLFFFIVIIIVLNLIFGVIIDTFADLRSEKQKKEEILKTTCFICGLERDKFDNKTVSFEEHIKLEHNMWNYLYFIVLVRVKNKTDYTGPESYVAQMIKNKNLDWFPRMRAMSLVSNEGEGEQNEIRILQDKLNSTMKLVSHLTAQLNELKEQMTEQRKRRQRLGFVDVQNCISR

Compound | EC50 [1] [µM] | pKi [2] | pKi [3] | pEC50 [4]
O=P(O)(O)OC1C(O)C(OP(=O)(O)O)C(F)(F)C(O)C1OP(=O)(O)O (stereo in doubt) | 0.41 |  |  | 
O=P(O)(O)OC1C(O)C(OP(=O)(O)O)C(F)(F)C(O)C1OP(=O)(O)O (stereo in doubt; L-(4b)) | 53 | 4.59 | 4.94 | 
O=P(O)(O)OC1C(O)C(OP(=O)(O)O)C(F)(F)C(O)C1OP(=O)(O)O (stereo not given) |  |  |  | 6.68

From ChEMBL document CHEMBL1125967, “Total synthesis of L-2,2-difluoro-2-deoxy-MYO-inositol 1,4,5-trisphosphate, a potent inhibitor of the enzymes of d-MYO-inositol 1,4,5-trisphosphate metabolism” (Bioorg Med Chem Lett, 1991)
